# Test results published in US7067506B2, “Compounds useful for inhibiting Chk1” (ICOS Corporation, priority 2001, dated 2006).
# What was measured:
# human tumor cell lines = experiment: Enhancement of cell killing by chemotherapeutic drugs (3H-thymidine uptake); assay type: cell-based
# Protocol: To test the hypothesis that inhibition of Chk1 potentiates the killing effect of DNA-damaging agents, cells were incubated in the presence of selective Chk1 inhibitors and either irradiation or chemical DNA-damaging agents. Cells plated at a density of 1000-2000 per well in 96-well microtitre plates were grown in RMPI 1640 containing 10% FBS, 100 U/mL penicillin and 100 μg/mL streptomycin for 18 hours at 37° C. in a humidified incubator with 5% CO2. Cells tested included HeLa, ACHN, 786-0, HCT116, SW620, HT29, Colo205, SK-MEL-5, SK-MEL-28, A549, H322, OVCAR-3, SK-OV-3, MDA-MB-231, MCF-7, PC-3, HL-60, K562, and MOLT4. All cell line designations refer to human cell lines and refer to the following:
# Cells were treated with media containing chemotherapeutic drugs alone or chemotherapeutic drugs and Compounds 12 and 29. Cells were incubated for approximately 5 days before growth was measured by determination of levels of ^3H-thymidine uptake. Chemotherapeutic drugs included etoposide, doxorubicin, cisplatin, chlorambucil, 5-fluorouracil (5-FU). The drug concentration necessary to inhibit cell growth to 90% of untreated control cells was defined as the GL90. At concentrations less than 100 μM, Compounds 12 and 29 enhanced the killing of 5-FU from 2- to 10-fold.
# Compounds 2 and 12 were tested with additional antimetabolites, including methotrexate, hydroxyurea, 2-chloroadenosine, fludarabine, azacytidine, and gemcitibine for an ability to enhance killing of the agents.
# [1] = tested on: Colo205 and HT29 xenograft tumors; experiment: Colon tumor xenograft model; assay type: in vivo, Balb/c (nu/nu) mice; details: i.p. 50, 100 or 150 mg/kg; tumor weight by calipers
# Protocol: To test the ability of the Chk1 inhibitors to enhance the killing of tumors by 5-FU in mice, xenograft tumor models using colon tumor cell lines were established. Colo205 and HT29 cells (human colon carcinoma) were used to propagate xenograft tumors in 6-8 week old female […] Balb/c (nu/nu) mice. Mice were maintained in a laminar airflow cabinet under pathogen-free conditions and fed sterile food and water ad libitum. Cell lines were grown to subconfluence in RPMI 1640 media supplemented with 10% FBS, 100 U/mL penicillin, 100 μg/mL streptomycin, and 1.5 mM L-glutamine in a 5% CO2 humidified environment. Single cell suspensions were prepared in CMF-PBS, and cell concentration adjusted to 1×10^8 cells/mL. Mice were inoculated subcutaneously (s.c). on the right flank or right leg with a total of 1×10^7 cells (100 μL).
# Mice were randomized (5 mice/group) into four treatment groups and used when tumors reached a weight of 75-100 mg (usually 7-11 days post-inoculation). Tumors were measured with vernier calipers and tumor weights were estimated using the empirically derived formula: tumor weight (mg)=tumor length (mm)×tumor width (mm)^2/3.3. Treatment consisted of i) 100 μL intraperitoneal (i.p). injection of 5-FU at 50 mg/kg, 100 mg/kg, or 150 mg/kg. […] Tumor size was monitored every other day for the duration of the experiment.
structure (smiles),measurement,setting,value
"COc1cc(CN)ccc1NC(=O)Nc1cnc(C)cn1 [Compound 342, 1-(4-Aminomethyl-2-methoxy-phenyl)-3-(5-methyl-pyrazin-2-yl)-urea]",melting point,,168 to 169 °C
"COc1cc(CN(C)Cc2ccccc2)ccc1NC(=O)Nc1cnc(C)cn1 [Compound 340, 1-{4-[(Benzyl-methyl-amino)-methyl]-2-methoxy-phenyl}-3-(5-methyl-pyrazin-2-yl)-urea]",melting point,,142 to 143 °C
"COc1cc(NC(=O)CCNC2CCCC2)ccc1NC(=O)Nc1cnccn1 [Compound 2, 3-cyclopentylamino-N-[3-methoxy-4-(3-pyrazin-2-yl-ureido)phenyl]-propionamide]",enhancement of killing of cells to 5-azacytidine,human tumor cell lines; combination with 5-azacytidine,enhance the killing of cells
same,enhancement of killing of cells to fludarabine,human tumor cell lines; combination with fludarabine,enhance the killing of cells
same,enhancement of killing of cells to hydroxyurea,human tumor cell lines; combination with hydroxyurea,enhance the killing of cells
same,enhancement of killing of cells to methotrexate,human tumor cell lines; combination with methotrexate,enhance the killing of cells
"O=c1[nH]cc(F)c(=O)[nH]1 [Compound 5-FU, 5-fluorouracil]",tumor growth,[1],dose-dependent delay in tumor growth
